Measured values as given in patent publication US9023789B2, “Amylin analogs and pharmaceutical compositions thereof” (Novo Nordisk A/S, priority 2012, dated 2015).
≈ marks a conversion by molar mass, not a printed value. Read-outs that look alike come from different tables or passages of the source. Numbered stars: 1 amine (or outer) side, 2 acyl side, 3 side chain; on linkers, the order of the positions; unused ones are H or OH. Bridge positions count the residues as written; N and C are the ends. Side chains are listed from the residue outwards. Peptide text beside a SMILES is read from it. * marks the point of attachment. C20 diacid = O=C(O)CCCCCCCCCCCCCCCCCCC(=O)*; γGlu = O=C(O)[C@H](CCC(=O)[*:2])N[*:1]

Columns and labels:
[1] = ASSAY (IV) determination of solubility; format: physicochemical
How it was run: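 Samples of polypeptide, prepared from a water stock at […] and diluted 1:1 into 100 mM buffers spanning pH 3.0 to 8.0, stood 18 hours at room temperature. Polypeptide concentration was then determined by UPLC following centrifugation.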

rat calcitonin receptor = target: T1, rat calcitonin receptor (Rattus norvegicus, UniProt P32214); experiment: ASSAY (VIII) binding to the rat calcitonin receptor; conditions: Table 7, read-out: rCTR bind IC50
T1 construct: expressed in transfected cells; host or cells: BHK tk'ts 13 (transient, FuGENE 6), membranes
T1 sequence (P32214 25-479 isoform P32214-2 limits assumed): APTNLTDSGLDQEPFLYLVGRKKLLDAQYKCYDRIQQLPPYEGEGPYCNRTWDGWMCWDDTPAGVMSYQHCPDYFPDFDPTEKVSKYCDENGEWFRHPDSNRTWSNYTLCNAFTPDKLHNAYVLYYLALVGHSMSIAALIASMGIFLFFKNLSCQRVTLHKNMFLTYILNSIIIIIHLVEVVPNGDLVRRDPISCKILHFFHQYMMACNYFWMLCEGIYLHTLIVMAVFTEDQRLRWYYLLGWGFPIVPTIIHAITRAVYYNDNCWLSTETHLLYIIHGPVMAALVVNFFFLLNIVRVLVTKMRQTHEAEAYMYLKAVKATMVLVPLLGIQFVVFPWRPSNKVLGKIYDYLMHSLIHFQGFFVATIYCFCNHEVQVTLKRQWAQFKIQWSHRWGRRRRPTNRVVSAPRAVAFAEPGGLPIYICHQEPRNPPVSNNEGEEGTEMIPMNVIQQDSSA
How it was run: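 Cell membranes for binding came from BHK tk′ts 13 cells harvested approximately 48 hours after transient transfection with the rat receptor.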

[2] = target: T2, human amylin 3(a) receptor (human calcitonin receptor + RAMP-3) in BHK570 cells (Homo sapiens, UniProt O60896+P30988); experiment: ASSAY (II)a functional assay, human amylin receptor (CRE luciferase); format: cell-based
T2 construct: expressed in transfected cells
How it was run: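 Receptor activation is measured as cAMP-driven CRE-luciferase expression in BHK cells expressing the calcitonin receptor, with RAMP-3 co-expressed to form the amylin 3(a) receptor. Cells are exposed to compound for 3 hours at 37° C, and luciferase is then quantified by luminescence.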

[3] = target: T3, human amylin receptor (membranes from Amylin 3(a)/CRE-luc cells) (Homo sapiens, UniProt O60896+P30988); experiment: ASSAY (V) binding to the human amylin receptor (SPA, 125I-rat amylin);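 note: competition binding of cell membranes (35 ng/µL) mixed with SPA beads in 384-well plates at 40 µL total volume, read by scintillation counting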
T3 construct: expressed in transfected cells
T3 sequence (P30988 25-474): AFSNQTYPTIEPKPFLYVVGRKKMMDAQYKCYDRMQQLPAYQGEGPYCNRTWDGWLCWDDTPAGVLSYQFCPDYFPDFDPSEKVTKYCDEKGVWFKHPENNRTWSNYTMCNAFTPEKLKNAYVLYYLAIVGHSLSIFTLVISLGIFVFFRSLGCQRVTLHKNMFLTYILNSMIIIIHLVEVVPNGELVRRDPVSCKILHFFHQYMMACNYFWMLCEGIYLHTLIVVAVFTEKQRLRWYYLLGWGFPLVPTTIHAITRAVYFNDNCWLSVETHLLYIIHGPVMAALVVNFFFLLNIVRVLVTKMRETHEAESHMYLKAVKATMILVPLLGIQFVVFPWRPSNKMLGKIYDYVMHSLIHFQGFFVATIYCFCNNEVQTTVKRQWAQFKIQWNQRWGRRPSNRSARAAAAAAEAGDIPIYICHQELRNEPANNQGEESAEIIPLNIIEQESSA
T3 sequence (O60896 24-148 partner): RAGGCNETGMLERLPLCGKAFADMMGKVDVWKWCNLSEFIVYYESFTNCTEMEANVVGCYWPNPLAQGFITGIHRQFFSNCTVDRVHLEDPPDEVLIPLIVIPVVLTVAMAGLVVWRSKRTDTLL
Description: The binding assay was performed using scintillation proximity assay (SPA) beads (RPNQ0001) from PerkinElmer and cell membranes from the Amylin 3(a)/CRE-luc cells (as described in Assay (II)) were used. Membranes were prepared in the following way; the cells were rinsed with PBS and incubated with Versene for approximately 5 min before harvesting. The cells were flushed with PBS and the cell-suspension was centrifuged for 5 min at 1000 rpm. […] The resulting pellet was resuspended in buffer 2 and protein concentration was measured (BCA protein Assay, Pierce). The homogenate was kept cold during the whole procedure. The membranes were kept at −80° C. until use. The assay was performed in a 384 well Optiplate (PerkinElmer) in a total volume of 40 ul. Membranes were mixed with SPA beads. Final concentration of membranes 35 ng/μL final and SPA beads was 0.05 mg/well. Test-compounds were dissolved in DMSO and further diluted in assay buffer (50 mM Hepes, pH 7.4, 1 mM CaCl2, 5 mM MgCl2, 0.1% OA and 0.02% Tween20). […] Samples were analyzed on TopCounter™ (Packard). The IC50 was calculated using (one site binding competition analysis) GraphPad Prism5 as a measure of receptor affinity.

[4] = bistrispropane buffer, pH 6.5, read-out: Solubility pH 6.5 Concentration
[5] = bistrispropane buffer, pH 7.5, read-out: Solubility pH 7.5 Concentration
[6] = bistrispropane buffer, pH 6.0, read-out: Solubility pH 6.0 Concentration
[7] = bistrispropane buffer, pH 7.0, read-out: Solubility pH 7.0 Concentration
[8] = bistrispropane buffer, pH 8.0, read-out: Solubility pH 8.0 Concentration
[9] = glycylglycine buffer, pH 4.0, read-out: Solubility pH 4.0 Concentration
[10] = glycylglycine buffer, pH 5.0, read-out: Solubility pH 5.0 Concentration
[11] = hCTR funct. EC50 over hAmylin-R funct. EC50
[12] = human functional selectivity: hCTR funct. EC50 / hAmylin-R funct. EC50
[13] = Table 5, selectivity, hCTR bind IC50 / hAmylin-R bind IC50
[14] = Table 5a, selectivity, hCTR bind IC50 / hAmylin-R bind IC50
[15] = Table 5b, selectivity, hCTR bind IC50 / hAmylin-R bind IC50
[16] = Table 5c, selectivity, hCTR bind IC50 / hAmylin-R bind IC50
[17] = Table 7, human binding selectivity, included for comparison
[18] = Table 7a (preferred compounds), human binding selectivity, included for comparison
[19] = ratio of human calcitonin receptor binding IC50 to human amylin receptor binding IC50
[20] = glycylglycine buffer, pH 3.0, read-out: Solubility pH 3.0 Concentration
[21] = hCTR funct. EC50 divided by hAmylin-R funct. EC50

Compound	solubility at 18 h [1, 4] [µM]	solubility at 18 h [1, 5] [µM]	solubility at 18 h [1, 6] [µM]	solubility at 18 h [1, 7] [µM]	solubility at 18 h [1, 8] [µM]	solubility at 18 h [1, 9] [µM]	solubility at 18 h [1, 10] [µM]	IC50 (rat calcitonin receptor) [nM]	Ratio hCT/hAmylin funct. [2, 11]	Ratio hCT/hAmylin funct. [2, 12]	Ratio hCT/hAmylin binding [3, 13]	Ratio hCT/hAmylin binding [3, 14]	Ratio hCT/hAmylin binding [3, 15]	Ratio hCT/hAmylin binding [3, 16]	Ratio hCT/hAmylin binding [3, 17]	Ratio hCT/hAmylin binding [3, 18]	Ratio hCT/hAmylin binding [3, 19]	solubility at 18 h [1, 20] [µM]	Ratio hCT/hAmylin funct. [2, 21]
CC[C@H](C)[C@H](NC(=O)[C@H](C)NC(=O)CNC(=O)[C@H](Cc1ccccc1)NC(=O)[C@H](CC(N)=O)NC(=O)[C@@H]1CCCN1C(=O)[C@H](CO)NC(=O)[C@H](CO)NC(=O)[C@H](Cc1c[nH]cn1)NC(=O)[C@H](CCCNC(=N)N)NC(=O)[C@H](CC(C)C)NC(=O)[C@H](Cc1ccccc1)NC(=O)[C@H](CCC(=O)O)NC(=O)[C@H](C)NC(=O)[C@H](CC(C)C)NC(=O)[C@H](CCCNC(=N)N)NC(=O)[C@H](CCC(N)=O)NC(=O)[C@@H](NC(=O)[C@H](C)NC(=O)[C@@H]1CSSC[C@H](NC(=O)[C@@H](N)CCCCNC(=O)CC[C@H](NC(=O)CC[C@H](NC(=O)CCCCCCCCCCCCCCCCCCC(=O)O)C(=O)O)C(=O)O)C(=O)N[C@@H](CC(N)=O)C(=O)N[C@@H]([C@@H](C)O)C(=O)N[C@@H](C)C(=O)N[C@@H]([C@@H](C)O)C(=O)N1)[C@@H](C)O)C(=O)N[C@@H](CC(C)C)C(=O)N[C@@H](CO)C(=O)N[C@@H](CO)C(=O)N[C@H](C(=O)N1CCC[C@H]1C(=O)N[C@H](C(=O)NCC(=O)N1CCC[C@H]1C(=O)N[C@@H](CCC(=O)O)C(=O)N[C@H](C(=O)N[C@@H](Cc1ccc(O)cc1)C(N)=O)[C@@H](C)O)C(C)C)[C@@H](C)O [Example 121] (H-K([γGlu-γGlu-C20 diacid])CNTATCATQRLAEFLRHSSPNFGAILSSTPVGPETY-NH2; disulfide 2-7; N-terminus assumed)	≥ 200	≥ 200	≥ 200	≥ 200	≥ 200	≥ 200	≥ 200	33.5	5.8	5.8	22.6	22.6	22.6	22.6	22.6	22.6	22.6		
CC[C@H](C)[C@H](NC(=O)[C@H](C)NC(=O)CNC(=O)[C@H](Cc1ccccc1)NC(=O)[C@H](CC(N)=O)NC(=O)[C@@H]1CCCN1C(=O)[C@H](CO)NC(=O)[C@H](CO)NC(=O)[C@H](Cc1c[nH]cn1)NC(=O)[C@H](CCCNC(=N)N)NC(=O)[C@H](CC(C)C)NC(=O)[C@H](Cc1ccccc1)NC(=O)[C@H](Cc1c[nH]cn1)NC(=O)[C@H](C)NC(=O)[C@H](CC(C)C)NC(=O)[C@H](CCCNC(=N)N)NC(=O)[C@H](CCC(N)=O)NC(=O)[C@@H](NC(=O)[C@H](C)NC(=O)[C@@H]1CSSC[C@H](NC(=O)[C@H](CCCNC(=N)N)NC(=O)CNC(=O)CC[C@H](NC(=O)CCCCCCCCCCCCCCCCCCC(=O)O)C(=O)O)C(=O)N[C@@H](CC(N)=O)C(=O)N[C@@H]([C@@H](C)O)C(=O)N[C@@H](C)C(=O)N[C@@H]([C@@H](C)O)C(=O)N1)[C@@H](C)O)C(=O)N1CCC[C@H]1C(=O)N[C@@H](CO)C(=O)N[C@@H](CO)C(=O)N[C@H](C(=O)N[C@@H](CC(N)=O)C(=O)N[C@H](C(=O)NCC(=O)N[C@@H](CO)C(=O)N[C@@H](CC(N)=O)C(=O)N[C@H](C(=O)N[C@@H](Cc1ccc(O)cc1)C(N)=O)[C@@H](C)O)C(C)C)[C@@H](C)O [Example 99] ({C20 diacid-γGlu}-GRCNTATCATQRLAHFLRHSSPNFGAIPSSTNVGSNTY-NH2; disulfide 3-8)	≥ 200	94 (≈ 422 µg/mL)	≥ 200	154 (≈ 691 µg/mL)	120 (≈ 539 µg/mL)	≥ 200	≥ 200	216	10.0	10.0	100.4	100.4	100.4	100.4	100.4	100.4	100.4	≥ 200	10.0
CC[C@H](C)[C@H](NC(=O)[C@H](C)NC(=O)CNC(=O)[C@H](Cc1ccccc1)NC(=O)[C@H](CC(N)=O)NC(=O)[C@@H]1CCCN1C(=O)[C@H](CO)NC(=O)[C@H](CO)NC(=O)[C@H](Cc1c[nH]cn1)NC(=O)[C@H](CCCNC(=N)N)NC(=O)[C@H](CC(C)C)NC(=O)[C@H](Cc1ccccc1)NC(=O)[C@H](CC(N)=O)NC(=O)[C@H](C)NC(=O)[C@H](CC(C)C)NC(=O)[C@H](CCCNC(=N)N)NC(=O)[C@H](CCC(N)=O)NC(=O)[C@@H](NC(=O)[C@H](C)NC(=O)[C@@H]1CSSC[C@H](NC(=O)[C@@H](N)CCCCNC(=O)COCCOCCNC(=O)COCCOCCNC(=O)CC[C@H](NC(=O)CCCCCCCCCCCCCCCCCCC(=O)O)C(=O)O)C(=O)N[C@@H](CC(N)=O)C(=O)N[C@@H]([C@@H](C)O)C(=O)N[C@@H](C)C(=O)N[C@@H]([C@@H](C)O)C(=O)N1)[C@@H](C)O)C(=O)N1CCC[C@H]1C(=O)N[C@@H](CO)C(=O)N[C@@H](CO)C(=O)N[C@H](C(=O)N[C@@H](CC(N)=O)C(=O)N[C@H](C(=O)NCC(=O)N1CCC[C@H]1C(=O)N[C@@H](CC(N)=O)C(=O)N[C@H](C(=O)N[C@@H](Cc1ccc(O)cc1)C(N)=O)[C@@H](C)O)C(C)C)[C@@H](C)O [Example 98]	≥ 200	≥ 200	≥ 200	≥ 200	176 (≈ 824 µg/mL)	≥ 200	≥ 200	24.1	19.5	19.5	74.1	74.1	74.1	74.1	74.1	74.1	74.1	≥ 200	19.5
